Experimental data taken from US12285357B2, “Intraocular drug delivery systems and methods of use” (SpyGlass Pharma, Inc., priority 2022, dated 2025).

Tests used:
[1] = daily release or elution of Bimatoprost in vitro versus time (FIG. 8); format: physicochemical; conditions: four-hundred-day study
From the text: FIG. 8 is an exemplary graph of daily release or elution of a pharmaceutical or therapeutic agent in vitro versus time. […] The target release rate in this study on rabbits was 0.050 to 0.100 micrograms per day.

[2] = Bimatoprost sampled in the aqueous humor of dogs over time (FIG. 9); format: in vivo
From the text: FIG. 9 is an exemplary graph of a therapeutic agent delivered to the aqueous humor of an eye of canines versus time.
In this example, there was a low dose group of dogs (Grp 1), a mid-dose group of dogs (Grp 2), a high dose group of dogs (Grp 3), and a placebo group of dogs (Grp 4).

CCNC(=O)CCC/C=C\C[C@@H]1[C@@H](/C=C/[C@@H](O)CCc2ccccc2)[C@H](O)C[C@@H]1O [Bimatoprost]
release rate order over time [1]: essentially a zero-order and/or a steady state elution rate | level of Bimatoprost in the aqueous humor, elution order ([2]; low dose (Grp 1), mid-dose (Grp 2), high dose (Grp 3), study period about one hundred thirteen days): zero-order elution rate | mean measurements of Bimatoprost in the aqueous humor versus dose ([2]; low, mid and high dose groups, sampled in ng/mL): increased with the higher doses
